Columns and labels:
[1] = target: T1, bovine rhodopsin activation of bovine rod transducin (Bos taurus, UniProt P02699); assay: radioactive filter binding assay: rhodopsin activation of bovine rod transducin (35S-GTPγS binding); format: biochemical
T1 construct: Rhodopsin can be purified from membrane fractions isolated from bovine rod outer segments; from tissue; host or cells: bovine retina / bovine rod outer segments
Source text: Vision enhancing activity of the estradiol analogs or derivatives can be examined in accordance with methods described herein or well known in the art. For example, the compounds can be assessed for ability to promote rhodopsin activation of rod transducin using a well-described radioactive filter binding assay. Detailed procedures for carrying out the assay are described in the art, e.g., Kono et al., Biochem. 44:799, 2005; Kono et al., FEBS Lett. 580:229-232, 2006; and Robinson et al., Methods Enzymol. 315:207-218, 2000). […] Effect of estradiol or an analog compound on rhodopsin activation of rod transducing can then be measured by monitoring binding of [35S]GTPγS to transducin in the presence or absence of the compound. The reaction mixture can contain, e.g., an appropriate buffer (e.g., an HEPES buffer or 10 mM Tris/1 mM MES buffer (pH 7.5)), 1 mM dithiothreitol, 5 mM MgCl2, 115 mM NaCl, 2.5 μM transducin, 0.01% DM, and 5 nM pigment (as determined from the extinction coefficient).
We examined the effect of the 17β-estradiol on opsin signaling and transducin activation. We measured the ability of estradiol to modulate rhodopsin activation of bovine rod transducin using the radioactive filter binding assay as described in Kono et al., Biochemistry 44:799-804, 2005; and Kono & Crouch, Methods Mol. Biol. 652:85-94, 2010. […]

[2] = cited from earlier work

T1 sequence (P02699 whole entry): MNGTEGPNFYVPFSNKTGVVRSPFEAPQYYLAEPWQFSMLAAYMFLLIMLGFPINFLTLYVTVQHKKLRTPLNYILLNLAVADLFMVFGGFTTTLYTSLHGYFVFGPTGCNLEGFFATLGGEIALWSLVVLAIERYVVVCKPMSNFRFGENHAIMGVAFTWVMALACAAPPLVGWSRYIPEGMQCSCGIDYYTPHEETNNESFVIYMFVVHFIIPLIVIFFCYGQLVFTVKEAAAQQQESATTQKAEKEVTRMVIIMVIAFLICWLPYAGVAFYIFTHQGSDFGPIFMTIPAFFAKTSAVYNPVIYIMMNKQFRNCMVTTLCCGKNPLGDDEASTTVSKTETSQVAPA

35S-GTPγS bound to transducin in the presence vs. absence of 17β-estradiol ([1]; bovine rhodopsin illuminated with 15 sec pulse of yellow light, Rho+estradiol vs Rho alone, FIG. 1): about three-fold
rhodopsin activation of rod transducin (result in words) ([1]; presence of 17β-estradiol): significantly up-regulated
Structure (SMILES): C[C@]12CC[C@@H]3c4ccc(O)cc4CC[C@H]3[C@@H]1CC[C@@H]2O [17β-estradiol]
potency in estrogenic effect relative to estriol ([2]; estradiol vs estriol): about 80 times
potency in estrogenic effect relative to estrone ([2]; estradiol vs estrone): about 10 times

Source: patent US20140378426A1, “Methods and compositions for enhancing visual function” (priority 2013, published 2014)
